Test results as given in the supplement of paper PMC11061612.

Key:
[1] = compound: CC(=O)Nc1cccc(-n2c(=O)n(C3CC3)c(=O)c3c(Nc4ccc(I)cc4F)n(C)c(=O)c(C)c32)c1 [Trametinib]; conditions: max 1 µM
How it was run: (§1)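 In 1536-well plates, cancer cell lines in 7.5 μl DMEM/F12 or RPMI with 10% FBS spent 24 hours at 37°C and 5% CO2 and were then dosed for 72 hours with final DMSO typically 0.2%. Viability was read by CellTiter-Glo 2.0 luminescence and scaled between blank-well and DMSO-well means. The single-agent IC50 was fitted from dose responses using a logistic curve in a non-linear mixed effects model, and that logistic curve had two parameters.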

[2] = compound: CC(C)n1c(=O)n(C)c2cnc3cc(F)c(-c4ccc(OCCCN5CCCCC5)nc4)cc3c21 [AZD1390]; conditions: max 0.3 µM
How it was run: as §1

[3] = compound: COc1nnc2ccc(N3CCC(c4ccc(OCCN5CCN(C)C(=O)[C@H]5C)cc4)CC3)nn12 [AZD5153]; conditions: max 1 µM
How it was run: as §1

[4] = compound: CC1=CN2[C@@H](C1)C=NC3=CC(=C(C=C3C2=O)OC)OCCCCCOC4=C(C=C5C(=C4)N=C[C@@H]6CC(=CN6C5=O)C)OC [SG3199]; conditions: max 0.001 µM
How it was run: as §1

[5] = compound: COc1cc2ncnc(Nc3ccc(F)c(Cl)c3)c2cc1OCCCN1CCOCC1 [Gefitinib]; conditions: max 10 µM
How it was run: as §1

[6] = compound: C[C@@H](Nc1cc(F)cc(F)c1)c1cc(C(=O)N(C)C)cc2c(=O)cc(N3CCOCC3)oc12 [AZD8186]; conditions: max 3 µM
How it was run: as §1

[7] = compound: CN(C)CCCOc1ccc(-c2ccc3ncc4c(c3c2)n(C2CCOCC2)c(=O)n4C)cn1 [AZD0156]; conditions: max 3 µM
How it was run: as §1

[8] = compound: C1CN(CCC1(C(=O)N[C@@H](CCO)C2=CC=C(C=C2)Cl)N)C3=NC=NC4=C3C=CN4 [Capivasertib]; conditions: max 10 µM
How it was run: as §1

[9] = compound: C[C@@H](Oc1cc(-c2cnn(C3CCNCC3)c2)cnc1N)c1c(Cl)ccc(F)c1Cl [Crizotinib]; conditions: max 10 µM
How it was run: as §1

[10] = compound: CS(=O)(=O)CCNCc1ccc(-c2ccc3ncnc(Nc4ccc(OCc5cccc(F)c5)c(Cl)c4)c3c2)o1 [Lapatinib]; conditions: max 10 µM
How it was run: as §1

[11] = compound: CC1=C(C(=CC=C1)Cl)NC(=O)C2=CN=C(S2)NC3=CC(=NC(=N3)C)N4CCN(CC4)CCO [Dasatinib]; conditions: max 2 µM
How it was run: as §1

[12] = compound: COc1cccc2c1C(=O)c1c(O)c3c(c(O)c1C2=O)C[C@@](O)(C(=O)CO)C[C@@H]3O[C@H]1C[C@H](N)[C@H](O)[C@H](C)O1 [Doxorubicin]; conditions: max 1 µM
How it was run: as §1

[13] = compound: CCN(CCO)CCCOc1ccc2c(Nc3cc(CC(=O)Nc4cccc(F)c4)[nH]n3)ncnc2c1 [AZD2811]; conditions: max 1 µM
How it was run: as §1

[14] = compound: Cc1c2c(nn1C)CSCc1cc(n(C)n1)CSc1cc(c3ccccc3c1)OCCCc1c(C(=O)O)n(C)c3c-2c(Cl)ccc13 [AZD5991]; conditions: max 1 µM
How it was run: as §1

[15] = compound: CN(CC[C@H](CSC1=CC=CC=C1)NC2=C(C=C(C=C2)S(=O)(=O)NC(=O)C3=CC=C(C=C3)N4CCC(CC4)[C@H](C5=CC=CC=C5C6=CC=C(C=C6)Cl)O)S(=O)(=O)C(F)(F)F)CCO [AZD4320]; conditions: max 1 µM
How it was run: as §1

[16] = compound: C[C@@H](c1ccc2nccn2c1)n1nnc2ncc(-c3cnn(C)c3)nc21 [Savolitinib]; conditions: max 1 µM
How it was run: as §1

[17] = compound: O=C(c1cc(Cc2n[nH]c(=O)c3ccccc23)ccc1F)N1CCN(C(=O)C2CC2)CC1 [Olaparib]; conditions: max 10 µM
How it was run: as §1

[18] = compound: COc1cccc(OCCCN)c1-c1cc(Nc2cnc(C#N)cn2)n[nH]1 [Prexasertib]; conditions: max 1 µM
How it was run: as §1

[19] = compound: CC(=O)c1c(C)c2cnc(Nc3ccc(N4CCNCC4)cn3)nc2n(C2CCCC2)c1=O [Palbociclib]; conditions: max 10 µM
How it was run: as §1

[20] = compound: Cc1nc(-c2cn3c(n2)-c2ccc(-c4cnn(C(C)(C)C(N)=O)c4)cc2OCC3)n(C(C)C)n1 [Taselisib]; conditions: max 10 µM
How it was run: as §1

[21] = compound: Cn1cnc2c(F)c(Nc3ccc(Br)cc3Cl)c(C(=O)NOCCO)cc21 [Selumetinib]; conditions: max 10 µM
How it was run: as §1

[22] = compound: CCc1c2c(nc3ccc(O)cc13)-c1cc3c(c(=O)n1C2)COC(=O)[C@]3(O)CC [SN-38]; conditions: max 0.3 µM
How it was run: as §1

[23] = compound: COc1cc(Nc2ncc3c(n2)-c2ccc(Cl)cc2C(c2c(F)cccc2OC)=NC3)ccc1C(=O)O [Alisertib]; conditions: max 10 µM
How it was run: as §1

[24] = compound: C=CCn1c(=O)c2cnc(Nc3ccc(N4CCN(C)CC4)cc3)nc2n1-c1cccc(C(C)(C)O)n1 [AZD1775]; conditions: max 3 µM
How it was run: as §1

[25] = compound: Cc1cc2ncnn2cc1Nc1ncc2c(n1)n(C1CCOCC1)c(=O)n2C [AZD7648]; conditions: max 10 µM
How it was run: as §1

[26] = compound: C[C@@H]1COCCN1C2=NC(=NC(=C2)C3(CC3)[S@](=N)(=O)C)C4=C5C=CNC5=NC=C4 [AZD6738]; conditions: max 10 µM
How it was run: as §1

[27] = compound: CC1(C)CCC(CN2CCN(c3ccc(C(=O)NS(=O)(=O)c4ccc(NCC5CCOCC5)c([N+](=O)[O-])c4)c(Oc4cnc5[nH]ccc5c4)c3)CC2)=C(c2ccc(Cl)cc2)C1 [Venetoclax]; conditions: max 1 µM
How it was run: as §1

| Cell Line | IC50, cell viability 72 h [1] [µM] | IC50, cell viability 72 h [2] [µM] | IC50, cell viability 72 h [3] [µM] | IC50, cell viability 72 h [4] [µM] | IC50, cell viability 72 h [5] [µM] | IC50, cell viability 72 h [6] [µM] | IC50, cell viability 72 h [7] [µM] | IC50, cell viability 72 h [8] [µM] | IC50, cell viability 72 h [9] [µM] | IC50, cell viability 72 h [10] [µM] | IC50, cell viability 72 h [11] [µM] | IC50, cell viability 72 h [12] [µM] | IC50, cell viability 72 h [13] [µM] | IC50, cell viability 72 h [14] [µM] | IC50, cell viability 72 h [15] [µM] | IC50, cell viability 72 h [16] [µM] | IC50, cell viability 72 h [17] [µM] | IC50, cell viability 72 h [18] [µM] | IC50, cell viability 72 h [19] [µM] | IC50, cell viability 72 h [20] [µM] | IC50, cell viability 72 h [21] [µM] | IC50, cell viability 72 h [22] [µM] | IC50, cell viability 72 h [23] [µM] | IC50, cell viability 72 h [24] [µM] | IC50, cell viability 72 h [25] [µM] | IC50, cell viability 72 h [26] [µM] | IC50, cell viability 72 h [27] [µM] |
| --- | --- | --- | --- | --- | --- | --- | --- | --- | --- | --- | --- | --- | --- | --- | --- | --- | --- | --- | --- | --- | --- | --- | --- | --- | --- | --- | --- |
| HT-1080 (Other Solid Carcinomas) | > 1 | > 0.3 | > 1 | > 0.001 | > 10 | > 3 | > 3 | > 10 | > 10 | > 10 | > 2 | > 1 | > 1 | > 1 | 0.721 | > 1 | > 10 | 0.536 | > 10 | > 10 | > 10 | > 0.3 | > 10 | > 3 | > 10 | > 10 | > 1 |
| MM1S (Plasma Cell Myeloma) | > 1 | > 0.3 | 0.347 | > 0.001 | > 10 | > 3 | 1.69 | 0.545 | 6.08 | > 10 | > 2 | 0.459 | > 1 | 0.325 | 0.153 | > 1 | > 10 | 0.0301 | > 10 | 0.207 | > 10 | 0.0101 | > 10 | 0.72 | > 10 | 9.52 | > 1 |
| MOLP-8 (Plasma Cell Myeloma) | > 1 | > 0.3 | 0.0495 | > 0.001 | > 10 | > 3 | 1.74 | 8.91 | 2.65 | > 10 | > 2 | 0.407 | > 1 | 0.0485 | > 1 | > 1 | > 10 | 0.0245 | > 10 | 0.439 | > 10 | 0.0484 | 5.24 | 0.465 | > 10 | 3.83 | > 1 |
| MOLT-13 (T-Lymphoblastic Leukemia) | 0.459 | > 0.3 | 0.0357 | > 0.001 | > 10 | > 3 | > 3 | > 10 | 4.26 | 5.86 | > 2 | 0.467 | 0.0427 | 0.0528 | 0.0338 | > 1 | > 10 | 0.0165 | 5.57 | > 10 | 5.27 | 0.00385 | 0.177 | 0.44 | > 10 | 2.37 | 0.416 |
